According to ChEMBL document CHEMBL5244218, “Quinolone derivatives and their activities against methicillin-resistant Staphylococcus aureus (MRSA)” (Eur J Med Chem, 2018):
Values after ≈ are worked out from the molar mass of the structure shown.

Legend:
Staphylococcus aureus [1] = experiment: Antibacterial activity against methicillin-resistant Staphylococcus aureus assessed as inhibition of microbial growth; format: functional
Staphylococcus aureus [2] = experiment: Antimicrobial activity against methicillin-resistant Staphylococcus aureus; format: functional, organism-based
Staphylococcus aureus [3] = experiment: Antibacterial activity against methicillin-resistant Staphylococcus aureus isolates by two fold dilution method; format: functional
Staphylococcus aureus [4] = experiment: Antimicrobial activity against methicillin-resistant Staphylococcus aureus assessed as inhibition of microbial growth; format: functional
Staphylococcus aureus [5] = experiment: Bactericidal activity against methicillin-resistant Staphylococcus aureus assessed as inhibition of microbial growth; format: functional
Staphylococcus aureus [6] = experiment: Antimicrobial activity against methicillin-resistant Staphylococcus aureus incubated for 18 hrs by Agar dilution method; format: functional
[7] = Cytotoxicity against human HEK293 cells incubated for 72 hrs by MTT assay; format: toxicity, cell-based
Staphylococcus aureus [8] = experiment: Antibacterial activity against methicillin-resistant Staphylococcus aureus; format: functional
Staphylococcus aureus [9] = experiment: Potency index, ratio of ciprofloxacin MIC to test compound MIC for antimicrobial activity against methicillin-resistant Staphylococcus aureus; format: functional
Staphylococcus aureus [10] = experiment: Potency index, ratio of norfloxacin MIC to test compound MIC for antimicrobial activity against methicillin-resistant Staphylococcus aureus; format: functional
Staphylococcus aureus [11] = experiment: Antimicrobial activity against methicillin-resistant Staphylococcus aureus isolates by agar dilution method; format: functional
Staphylococcus aureus [12] = experiment: Antimicrobial activity against methicillin-resistant Staphylococcus aureus incubated for 18 hrs by Alamar blue staining based analysis; format: functional
Staphylococcus aureus [13] = experiment: Antimicrobial activity against methicillin-resistant Staphylococcus aureus by agar dilution method; format: functional
Staphylococcus aureus [14] = experiment: Antimicrobial activity against methicillin-resistant Staphylococcus aureus Mi300 by microbroth dilution method; format: functional
Staphylococcus aureus [15] = experiment: Antimicrobial activity against methicillin-resistant Staphylococcus aureus Mi339 by microbroth dilution method; format: functional
Staphylococcus aureus [16] = experiment: Antimicrobial activity against methicillin-resistant Staphylococcus aureus clinical isolate 1 measured after 18 hrs by agar dilution method; format: functional
Staphylococcus aureus [17] = experiment: Antimicrobial activity against methicillin-resistant Staphylococcus aureus clinical isolate 2 measured after 18 hrs by agar dilution method; format: functional
Staphylococcus aureus [18] = experiment: Potency index, ratio of norfloxacin MIC to test compound MIC for antimicrobial activity against methicillin-resistant Staphylococcus aureus clinical isolate 1; format: functional
Staphylococcus aureus [19] = experiment: Potency index, ratio of norfloxacin MIC to test compound MIC for antimicrobial activity against methicillin-resistant Staphylococcus aureus clinical isolate 2; format: functional
Staphylococcus aureus [20] = experiment: Potency index, ratio of ciprofloxacin MIC to test compound MIC for antimicrobial activity against methicillin-resistant Staphylococcus aureus clinical isolate 1; format: functional
Staphylococcus aureus [21] = experiment: Potency index, ratio of ciprofloxacin MIC to test compound MIC for antimicrobial activity against methicillin-resistant Staphylococcus aureus clinical isolate 2; format: functional

`CNCC1CN(c2ccc3c(=O)c(C(=O)O)cn(C4CC4)c3n2)CC1(C)C` (centres undefined) gave an MIC (Staphylococcus aureus [1]) of 0.015 µg/mL.

`CC1(C)CN(c2ccc3c(=O)c(C(=O)O)cn(C4CC4)c3n2)CC1CN` (centres undefined) gave an MIC (Staphylococcus aureus [1]) of 0.015 µg/mL.

In the case of `CCO/N=C1\CCN(c2nc3c(cc2F)c(=O)c(C(=O)O)cn3C2CC2)CC1(C)CN` (centres undefined), the MIC (Staphylococcus aureus [2]) is reported as 8 µg/mL (≈ 18.5 µM).

In the case of `CNCC1CN(c2ccc3c(=O)c(C(=O)O)cn(C4CC4)c3c2)CC1(C)C` (centres undefined), the MIC (Staphylococcus aureus [1]) is reported as 0.015 µg/mL.

`COc1cc(=O)n(C)c2ccccc12` gave an IC50 (Staphylococcus aureus [2]) of 8 µM.

For `CC1COc2c(N3CCN(C)CC3)c(F)cc3c(=O)c(C(=O)O)cn1c23` (centres undefined) [OFLOXACIN], the MIC (Staphylococcus aureus [3]) was 1.56 µg/mL (≈ 4.32 µM).

With `COc1ccccc1C(=O)N1CCN(C(=O)N2CCN(c3ccc4c(=O)c(C(=O)O)cn(C5CC5)c4c3)CC2)CC1` the MIC (Staphylococcus aureus [4]) was < 0.016 µg/mL and the MBC (Staphylococcus aureus [5]) was ≥ 128 µg/mL.

For `COc1c(N2CCNC(C)C2)c(F)cc2c(=O)c(C(=O)O)cn(C3CC3)c12` (centres undefined) [GATIFLOXACIN], the MIC (Staphylococcus aureus [2]) was 16 µg/mL (≈ 42.6 µM), the MIC (Staphylococcus aureus [6]) was 0.06 µg/mL (≈ 0.16 µM) and the MIC (Staphylococcus aureus [1]) was 0.06 µg/mL.

Work on `O=C(O)c1cn(C2CC2)c2c(Cl)c(N3CCN(Cn4nc(-c5ccccc5O)n(-c5cc(Cl)cc(Cl)c5)c4=S)CC3)c(F)cc2c1=O` yielded an EC50 at 72 h [7] of 50.5 µM.

In the case of `CC1(C)CN(c2ccc3c(=O)c(C(=O)O)cn(C4CC4)c3c2)CC1CN` (centres undefined), the MIC (Staphylococcus aureus [1]) is reported as 0.015 µg/mL.

With `COc1c(-n2cc3ccccc3c2)c(F)cc2c(=O)c(C(=O)Nc3nccs3)cn(C3CC3)c12` the MIC (Staphylococcus aureus [8]) was > 201 µg/mL.

With `COc1c(N2CCCC2)c(F)cc2c(=O)c(C(=O)Nc3nccs3)cn(C3CC3)c12` the MIC (Staphylococcus aureus [8]) was > 201 µg/mL.

In the case of `COc1ccc(C(=O)N2CCN(C(=O)N3CCN(c4ccc5c(=O)c(C(=O)O)cn(C6CC6)c5c4)CC3)CC2)cc1`, the MIC (Staphylococcus aureus [4]) is reported as < 0.016 µg/mL and the MBC (Staphylococcus aureus [5]) is reported as ≥ 128 µg/mL.

For `COc1c2c(cc(F)c1N1C[C@H]3CCCN(C[C@@H](O)Cn4cc([N+](=O)[O-])nc4C)[C@H]3C1)C(=O)C(C(=O)O)=CC2C1CC1` (some centres undefined), the MIC (Staphylococcus aureus [2]) was 2 µg/mL (≈ 3.43 µM).

Molecule `CNCC1CN(c2cc(N)c3c(=O)c(C(=O)O)cn(C4CC4)c3c2C(C)=O)CC1(C)C` (centres undefined) has an MIC (Staphylococcus aureus [1]) of 0.015 µg/mL.

Molecule `O=C(O)c1cn(C2CC2)c2c(c1=O)C=C(F)C1N=NC(c3ccccc3F)=CN21` (centres undefined) has a Ratio (Staphylococcus aureus [9]) of 32 and an MIC (Staphylococcus aureus [4]) of 0.25 µg/mL.

Work on `O=C(O)c1cn(CC(O)Cn2cncn2)c2ccc(F)cc2c1=O` (centres undefined) yielded a Ratio (Staphylococcus aureus [10]) of 8 and an MIC (Staphylococcus aureus [8]) of 1 µg/mL (≈ 3.01 µM).

`COc1ccc(Cn2c(-c3ccccc3O)nn(CN3CCN(c4c(F)cc5c(=O)c(C(=O)O)cn(C6CC6)c5c4Cl)CC3)c2=S)cc1` gave an EC50 at 72 h [7] of 50.5 µM.

With `O=C(O)c1cn(C2CC2)c2cc(N3CCN(Cc4cccc(CN5CCN(c6ncc7c(=O)c(C(=O)O)cn(C8CC8)c7n6)CC5)c4)CC3)ccc2c1=O` the MIC (Staphylococcus aureus [2]) was < 0.03 µg/mL and the Ratio (Staphylococcus aureus [9]) was >16.

`Cc1ccc(NC2CN(c3c(F)cc4c(=O)c(C(=O)O)cn(C5CC5)c4c3F)C2)cc1` gave an MIC (Staphylococcus aureus [11]) of 0.016 µg/mL (≈ 0.0376 µM).

In the case of `CCNCC1CCN(c2c(F)cc3c(=O)c(C(=O)O)c4scc5n4c3c2NC5)C1` (centres undefined), the MIC (Staphylococcus aureus [3]) is reported as 0.05 µg/mL (≈ 0.12 µM).

In the case of `CNCC1CN(c2ccc3c(=O)c(C(=O)O)cn(C4CC4)c3c2C(C)=O)CC1(C)C` (centres undefined), the MIC (Staphylococcus aureus [1]) is reported as 0.015 µg/mL.

With `COc1cccc(O/N=C2/CCN(c3c(F)cc4c(=O)c(C(=O)O)cn(C5CC5)c4c3OC)CC2N)c1OC` (centres undefined) the MIC (Staphylococcus aureus [12]) was 0.008 µg/mL (≈ 0.0148 µM).

Work on `CCO/N=C1\CCN(c2c(F)cc3c(=O)c(C(=O)O)cn(C4CC4)c3c2F)CC1(C)CNC` (centres undefined) yielded an MIC (Staphylococcus aureus [13]) of 64 µg/mL (≈ 138 µM).

In the case of `O=C(O)c1cn(C2CC2)c2c(c1=O)C=C(F)C1N=NC(c3ccc(F)cc3)=CN21` (centres undefined), the Ratio (Staphylococcus aureus [9]) is reported as 32 and the MIC (Staphylococcus aureus [4]) is reported as 0.25 µg/mL.

Work on `CNC1CCCN(c2c(F)cc3c(=O)c(C(=O)O)cn(C4CC4)c3c2OC)C1` (centres undefined) [BALOFLOXACIN] yielded an MIC (Staphylococcus aureus [12]) of 4 µg/mL (≈ 10.3 µM).

With `O=C(O)c1cn(C2CC2)c2c(F)c(N3CC(Nc4ccc(Cl)cc4)C3)c(F)cc2c1=O` the MIC (Staphylococcus aureus [11]) was 0.016 µg/mL (≈ 0.0359 µM).

Molecule `C[C@@H](O)[C@H]1C(=O)N2C(C(=O)O)=C(COC(=O)N3CCN(c4cc5c(cc4F)c(=O)c(C(=O)O)cn5C4CC4)CC3)S[C@H]12` has an MIC (Staphylococcus aureus [14]) of 0.06 µg/mL (≈ 0.0996 µM) and an MIC (Staphylococcus aureus [15]) of 0.06 µg/mL (≈ 0.0996 µM).

Molecule `O=C(O)c1cn(C2CC2)c2cc(N3CCNCC3)c(F)cc2c1=O` [CIPROFLOXACIN] has an MIC (Staphylococcus aureus [2]) of 0.5 µg/mL (≈ 1.51 µM), an MIC (Staphylococcus aureus [12]) of 64 µg/mL (≈ 193 µM) and an MIC (Staphylococcus aureus [14]) of 0.25 µg/mL (≈ 0.754 µM). For the same molecule, the MIC (Staphylococcus aureus [15]) was 32 µg/mL (≈ 96.6 µM), the MBC (Staphylococcus aureus [5]) was 0.031 µg/mL and the MIC (Staphylococcus aureus [1]) was 0.06 µg/mL.

With `COc1cc(OC)cc(C(=O)N2CCN(C(=O)N3CCN(c4ccc5c(=O)c(C(=O)O)cn(C6CC6)c5c4)CC3)CC2)c1` the MIC (Staphylococcus aureus [4]) was < 0.016 µg/mL and the MBC (Staphylococcus aureus [5]) was ≥ 128 µg/mL.

With `NO/N=C(/CN1CCN(c2cc3c(cc2F)c(=O)c(C(=O)O)cn3C2CC2)CC1)c1cccs1` the MIC (Staphylococcus aureus [16]) was 0.19 µg/mL (≈ 0.391 µM), the MIC (Staphylococcus aureus [17]) was 0.19 µg/mL (≈ 0.391 µM) and the Ratio (Staphylococcus aureus [18]) was 4. The Ratio (Staphylococcus aureus [19]) was 4, the Ratio (Staphylococcus aureus [20]) was 2 and the Ratio (Staphylococcus aureus [21]) was 2.

For `COc1ccc(NC2CN(c3c(F)cc4c(=O)c(C(=O)O)cn(C5CC5)c4c3F)C2)cc1`, the MIC (Staphylococcus aureus [11]) was 0.16 µg/mL (≈ 0.362 µM).

For `COc1cccc(C(=O)N2CCN(C(=O)N3CCN(c4ccc5c(=O)c(C(=O)O)cn(C6CC6)c5c4)CC3)CC2)c1`, the MIC (Staphylococcus aureus [4]) was < 0.016 µg/mL and the MBC (Staphylococcus aureus [5]) was ≥ 128 µg/mL.
